Data reported in ChEMBL document CHEMBL6153025, “Multidrug-resistant bacteria quorum-sensing inhibitors: A particular focus on Pseudomonasaeruginosa” (Eur J Med Chem, 2025).
Values after ≈ are worked out from the molar mass of the structure shown.

What was measured:
Bacillus subtilis = assay: Antibacterial activity against Bacillus subtilis; type: functional
Pseudomonas aeruginosa [1] = assay: Antibacterial activity against Pseudomonas aeruginosa; type: functional
Staphylococcus aureus [2] = assay: Antibacterial activity against Methicillin-sensitive Staphylococcus aureus; type: functional
Escherichia coli = assay: Antibacterial activity against Escherichia coli; type: functional
Bacillus pumilus = assay: Antibacterial activity against Bacillus pumilus; type: functional
Pseudomonas aeruginosa [3] = assay: Anti-virulence effect in Pseudomonas aeruginosa PAO1 assessed as inhibition of rhamnolipid production at 10 uM relative to control; type: functional; set-up: scale not given: the % may be the effect or the level left
Staphylococcus aureus [4] = assay: Antibacterial activity against Methicillin-resistant Staphylococcus aureus; type: functional
Pseudomonas aeruginosa [5] = assay: Antivirulence activity against Pseudomonas aeruginosa PAO1 assessed as reduction in pyocyanin level at 10 uM relative to control; type: functional; set-up: scale not given: the % may be the effect or the level left
Pseudomonas aeruginosa [6] = assay: Antimicrobial activity against Pseudomonas aeruginosa PAO1 assessed as inhibition of bacterial growth measured for 18 hrs by CLSI-based broth microdilution method; type: functional
Pseudomonas aeruginosa [7] = assay: Antibiofilm activity against Pseudomonas aeruginosa PA14 assessed as reduction in biofilm biomass production at 18 ug/ml relative to control; type: functional; set-up: scale not given: the % may be the effect or the level left; settings: dose 18 µg/ml
Pseudomonas aeruginosa [8] = assay: Antibacterial activity against Pseudomonas aeruginosa PAO1-L; type: functional, organism-based
[9] = Inhibition of quorum sensing system in Pseudomonas aeruginosa PAO1
Pseudomonas aeruginosa [10] = assay: Antibiofilm activity against Pseudomonas aeruginosa PAO1 assessed as inhibition of biofilm formation incubated for 24 hrs by crystal violet staining based assay; type: functional, organism-based; settings: PAO1, 24 h
Pseudomonas aeruginosa [11] = assay: Antibacterial activity against Pseudomonas aeruginosa ATCC 15442 assessed as reduction in bacterial cell growth incubated for 24 hrs by two fold serial microdilution method; type: functional
Pseudomonas aeruginosa [12] = assay: Antivirulence activity in Pseudomonas aeruginosa PAO1 assessed as reduction in pyocyanin production at 10 uM incubated for 24 hrs by absorbance based analysis relative to control; type: functional; set-up: scale not given: the % may be the effect or the level left
Pseudomonas aeruginosa [13] = assay: Antibiofilm activity against Pseudomonas aeruginosa ATCC 27853 assessed as reduction in biofilm biomass at 16 ug/ml relative to control; type: functional; set-up: scale not given: the % may be the effect or the level left; settings: dose 16 µg/ml
Pseudomonas aeruginosa [14] = assay: Antibacterial activity against Pseudomonas aeruginosa PAO1 assessed as reduction in bacterial growth by broth microdilution method; type: functional, organism-based
Pseudomonas aeruginosa [15] = assay: Anti-virulence activity against Pseudomonas aeruginosa PAO1-L assessed as reduction in pyocyanin production at 10 uM incubated for 24 hrs by absorbance based analysis relative to control; type: functional; set-up: scale not given: the % may be the effect or the level left
[16] = Inhibition of quorum sensing system in Pseudomonas aeruginosa PAO1 expressing lasB-gfp
Pseudomonas aeruginosa [17] = assay: Antibiofilm activity against Pseudomonas aeruginosa PAO1 assessed as inhibition of biofilm formation at 100 uM relative to control; type: functional; set-up: scale not given: the % may be the effect or the level left

COc1ccc(OCCCCCCCC(=O)NNC(=O)Cn2c(=O)oc3ncccc32)cc1
MIC (Bacillus subtilis): > 512 µg/mL | MIC (Pseudomonas aeruginosa [1]): > 512 µg/mL | MIC (Staphylococcus aureus [2]): > 512 µg/mL | MIC (Escherichia coli): > 512 µg/mL | MIC (Bacillus pumilus): > 512 µg/mL | Activity (Pseudomonas aeruginosa [3]): 6.34% | MIC (Staphylococcus aureus [4]): > 512 µg/mL | Activity (Pseudomonas aeruginosa [5]): 53.1%

O=c1cc(-c2ccc(O)cc2)oc2cc(O)cc(O)c12 [APIGENIN]
MIC (Pseudomonas aeruginosa [6]): 0.48 µg/mL (≈ 1.78 µM)

COc1cc(/C=C/C2C(C)=NC(C)=CN2C)c(C(=O)O)c(O)c1CC=C(C)C (configuration not stated)
Activity (Pseudomonas aeruginosa [7]): 59.68%

N#CCc1ccc(OCC(=O)Cn2cnc3ccc(Cl)cc3c2=O)cc1
IC50 (Pseudomonas aeruginosa [8]): 4.3 µM

N#CCc1ccc(OCC(O)Cn2cnc3ccc(Cl)cc3c2=O)c(F)c1 (configuration not stated)
IC50 (Pseudomonas aeruginosa [8]): 2.2 µM

O=C(CNc1ccc(C(=O)/C=C/c2ccccc2Br)cc1)N[C@@H]1CCOC1=O
IC50 [9]: 37.6 µM

O=C(CCCCCOc1ccc(Cl)cc1)NNC(=O)Cn1c(=O)oc2ncccc21
MIC (Bacillus subtilis): > 512 µg/mL | MIC (Pseudomonas aeruginosa [1]): > 512 µg/mL | MIC (Staphylococcus aureus [2]): > 512 µg/mL | MIC (Escherichia coli): > 512 µg/mL | MIC (Bacillus pumilus): > 512 µg/mL | MIC (Staphylococcus aureus [4]): > 512 µg/mL

CCCCCCCn1ccnc1
IC50 (Pseudomonas aeruginosa [10]): 3.29 µM

O=[N+]([O-])c1ccc(CNCCCCCCCCNc2ccnc3cc(Cl)ccc23)cc1
MIC (Pseudomonas aeruginosa [11]): > 2 µM | Activity (Pseudomonas aeruginosa [12]): 97%

O=C(O)CCc1ccc(O)c(O)c1 [DIHYDROCAFFEIC ACID]
Activity (Pseudomonas aeruginosa [13]): 19.82%

O=C(CNc1ccc(C(=O)/C=C/c2ccc(-c3ccccc3)cc2)cc1)N[C@@H]1CCOC1=O
MIC (Pseudomonas aeruginosa [14]): 5 µM (≈ 2.2 µg/mL)

COc1ccc(OCCCCCCC(=O)NNC(=O)Cn2c(=O)oc3ncccc32)cc1
MIC (Bacillus subtilis): > 512 µg/mL | MIC (Pseudomonas aeruginosa [1]): > 512 µg/mL | MIC (Staphylococcus aureus [2]): > 512 µg/mL | MIC (Escherichia coli): > 512 µg/mL | MIC (Bacillus pumilus): > 512 µg/mL | Activity (Pseudomonas aeruginosa [3]): 6.34% | MIC (Staphylococcus aureus [4]): > 512 µg/mL

Clc1ccc2c(NCCCCCCCCNCc3csc4ccccc34)ccnc2c1
MIC (Pseudomonas aeruginosa [11]): > 2 µM | Activity (Pseudomonas aeruginosa [12]): 97%

COc1cc(O)c(C(=O)O)c(CCc2ccc(S(F)(F)(F)(F)F)cc2)c1
Activity (Pseudomonas aeruginosa [7]): 19.48%

FC(F)(F)c1ccc(CNCCCCCCCCNc2ccnc3cc(Cl)ccc23)cc1
MIC (Pseudomonas aeruginosa [11]): > 2 µM | Activity (Pseudomonas aeruginosa [12]): 97%

COc1ccc(OCCCCCC(=O)NN2C(=O)CN(c3ccccc3O)C2=O)cc1
MIC (Bacillus subtilis): > 512 µg/mL | MIC (Pseudomonas aeruginosa [1]): > 512 µg/mL | MIC (Staphylococcus aureus [2]): > 512 µg/mL | MIC (Escherichia coli): > 512 µg/mL | MIC (Bacillus pumilus): > 512 µg/mL | Activity (Pseudomonas aeruginosa [5]): 61%

O=C(CNc1ccc(C(=O)/C=C/c2ccccc2)cc1)N[C@@H]1CCOC1=O
IC50 [9]: 62.5 µM

Cc1ccc(CCOC(=O)/C=C/c2ccc(O)c(O)c2)cc1
Activity (Pseudomonas aeruginosa [13]): 22.67%

N#CCc1ccc(OC[C@@H](O)Cn2cnc3ccc(Cl)cc3c2=O)cc1
IC50 (Pseudomonas aeruginosa [8]): 4.3 µM | Activity (Pseudomonas aeruginosa [15]): 95% | IC50 [16]: 7 µM

O=C(CNc1ccc(C(=O)/C=C/c2ccc(F)cc2)cc1)N[C@@H]1CCOC1=O
IC50 [9]: 46.8 µM

O=Cc1ccc(O)c(O)c1 [PROTOCATECHUALDEHYDE]
Activity (Pseudomonas aeruginosa [17]): 18%

COc1cc(/C=C/c2cncs2)c(C(=O)O)c(O)c1CC=C(C)C
Activity (Pseudomonas aeruginosa [7]): 21.06%

Clc1ccc2c(NCCCCCCCCNCc3ncc[nH]3)ccnc2c1
MIC (Pseudomonas aeruginosa [11]): > 2 µM | Activity (Pseudomonas aeruginosa [12]): 97%

N#CCc1ccc(OCC(N)Cn2cnc3ccc(Cl)cc3c2=O)cc1 (configuration not stated)
IC50 (Pseudomonas aeruginosa [8]): 4.3 µM | IC50 [16]: 2.4 µM

COc1ccc(-c2coc3cc(O)cc(O)c3c2=O)cc1 [BIOCHANIN]
MIC (Pseudomonas aeruginosa [6]): 0.48 µg/mL (≈ 1.69 µM)

COc1cc(/C=C/c2ccc(C#N)cc2F)c(C(=O)O)c(O)c1CC=C(C)C
Activity (Pseudomonas aeruginosa [7]): 19.43%

O=C(CNc1ccc(C(=O)/C=C/c2ccc(Cl)cc2)cc1)N[C@@H]1CCOC1=O
IC50 [9]: 46.8 µM

O=C(CNc1ccc(C(=O)/C=C/c2ccc(Br)cc2)cc1)N[C@@H]1CCOC1=O
IC50 [9]: 46.8 µM

O=C(O)/C=C/c1ccc(O)c(O)c1 [CAFFEIC ACID]
Activity (Pseudomonas aeruginosa [13]): 33%

O=c1c(-c2ccc(O)cc2)coc2cc(O)ccc12 [DAIDZEIN]
MIC (Pseudomonas aeruginosa [6]): 45 µg/mL (≈ 177 µM)

O=C(CNc1ccc(C(=O)/C=C/c2ccccc2Cl)cc1)N[C@@H]1CCOC1=O
IC50 [9]: 67.8 µM

Clc1ccc2c(NCCCCCCCCNCc3cc4ccccc4o3)ccnc2c1
MIC (Pseudomonas aeruginosa [11]): > 2 µM | Activity (Pseudomonas aeruginosa [12]): 97%

CCCCCCCCCCC(=O)NN1C(=O)CN(c2ccccc2O)C1=O
MIC (Bacillus subtilis): > 512 µg/mL | MIC (Pseudomonas aeruginosa [1]): > 512 µg/mL | MIC (Staphylococcus aureus [2]): > 512 µg/mL | MIC (Escherichia coli): > 512 µg/mL | MIC (Bacillus pumilus): > 512 µg/mL | Activity (Pseudomonas aeruginosa [3]): 2.76% | Activity (Pseudomonas aeruginosa [5]): 38.62%

COc1cc(/C=C/c2cn(Cc3ccccc3)nn2)c(C(=O)O)c(O)c1CC=C(C)C
Activity (Pseudomonas aeruginosa [7]): 51.38%

O=C(CNc1ccc(C(=O)/C=C/c2ccc(Cl)c(Cl)c2)cc1)N[C@@H]1CCOC1=O
IC50 [9]: 46.8 µM
